According to patent publication US6525017B1, “Using glutathiane to protect neurons from injury” (The Children's Medical Center Corporation, priority 1989, dated 2003):

Assays:
NMDA receptors = settings: 0.5-10 mM
retinal ganglion cells = assay: Survival of retinal ganglion cells exposed to glutamate (NMDA neurotoxicity); assay type: cell-based, rat; settings: for NMDA receptor-mediated neurotoxicity / neuronal cell injury: oxidized DTT produced from reduced DTT with DTNB
Description: To investigate the influence of redox modulation on NMDA neurotoxicity, survival of an identified central neuron, the retinal ganglion cell, was monitored for 12-24 hr after a brief (5-10 min.) exposure to DTT. To determine the degree of killing specifically related to activation of the NMDA receptor, APV at 200 μM was added to sibling cultures. APV-preventable, glutamate-induced death was increased 70±9% with DTT treatment.
Retinal ganglion cell neurons were labeled in situ, dissociated from the retina, and cultured as follows. Retinal ganglion cells from 7- to 12-day-old Long-Evans rats were labeled and enzymatically dissociated as described by Leifer et al., Science 224: 303, 1984. Following rinse of the dissociated retinal cells with a physiological saline based on Hanks' salts (composition in mM: NaCl, 137; NaHCO3, 1; Na2HPO4, 0.34; KCl, 5,36; KH2PO4, 0.44; CaCl2, 1.25, MgSO4, 0.5; MgCl2, 0.5; N-2-hydroxyethyl-piperazine-N′-2-ethanesulfonic acid (HEPES), 5; dextrose, 22.2; Phenol Red, 0.001% v/v; adjusted to pH 7.2 with 0.3 M NaOH), the cells were mechanically dispersed and aliquoted to treatment vials. These vials contained control saline solution, or saline solution with either 0.5-2 mM DTT, or 0.5 mM DTT in the presence of 1 mM DTNB. Treatment groups with DTNB were readjusted to pH 7.2 with 0.3 M NaOH. Cells were agitated gently over a 5-10 min period. After treatment, 100 μl volumes of the cell suspension were plated onto glass coverslips coated with poly-L-lysine in 35×10 mm tissue-culture dishes containing 2 ml of culture medium. The cell culture medium was based on Eagle's minimum essential medium (MEM), modified so that it was nominally free of magnesium and contained 10 mM CaCl2 to enhance NMDA receptor-mediated neuro-toxicity. The medium was also supplemented with methylcellulose 0.7% w/v, gentamicin 1 μg/ml, dextrose 16 mM, and rat serum 5% v/v. Glutamate levels in the culture medium were monitored by HPLC analysis. Concentrations of glutamate added to the medium of each experiment to induce cell killing averaged 10 μM (day to day variability in neuronal cell death was most probably due to slight variations in the amount of endogenous glutamate or a glutamate-like substance in these cultures). The 100 μl aliquots of cell suspension diluted into the 2 ml of MEM produced a final concentration of 50 μM Mg^2+, as well as levels of DTT and DTNB at 5% of their initial treatment concentrations. The cell cultures were incubated for 12-24 hours at 37° C. in an atmosphere of 5% CO2/95% humidified air. Neuronal survival was then scored by counting retinal ganglion cells displaying uptake and cleavage of fluorescein diacetate to fluorescein, as described by Hahn et al. Proc. Nat. Acad. Sci. USA 85:6556, 1988.
Experiments were conducted in triplicate and repeated on eleven separate days. In order to compare results obtained on different days, data were normalized such that the total number of surviving neurons in a given experiment divided by the number of treatment categories (i.e., 4) equalled 100.
Retinal cells were cultured as described in Example 1. In these experiments transient exposure to the reduced form of DTT (500 μM) occurred in the presence of DTNB (1 mM).

NMDA receptor = assay: NMDA-induced responses recorded in intact chick retina (eyecup, optic nerve DC potential); assay type: cell-based; settings: APV 100 μM
Description: Eyecups were obtained from 2-to 5-day-old chicks and continuously superfused at 20-25° C. at a rate of 8 ml/min with Tyrodes solution (130 mM NaCl, 3 mM KCl, 17 mM dextrose, 20 mM NaHCO3, 0.01% w/v phenol red; bubbled with a gas mixture of 95% O2 and 5% CO2) containing 5 mM MgCl2 to reduce synaptic activity. […] Traces were triggered by the opening of two solenoid valves that shunted approximately 200 μl of agonist (1, 1-dimethyl-4-phenyl-piperazinium iodide, DMPP or NMDA) into the perfusion line, Agonists reached the preparation approximately 7s later. […] Some experiments were performed in the presence of 10 μg/ml catalase and 1 μg/ml superoxide dismutase. Antagonists, reducing agents, or oxidizing agents were introduced directly via the perfusate.

## N[C@@H](CCC(=O)N[C@@H](CS)C(=O)NCC(=O)O)C(=O)O [reduced glutathione, glutathione]
NMDA receptors
  protection against toxicity mediated at NMDA receptors: can protect

## NC(CCCP(=O)(O)O)C(=O)O (stereo not shown) [APV, 2-amino-5-phosphonovalerate]
Retinal ganglion cells; 200 μM APV after DTT treatment
  vulnerability of neurons despite DTT treatment: could be blocked
Retinal ganglion cells; APV 200 μM, DTT transient exposure, 12-24 hr
  death of retinal ganglion cells exposed to glutamate in the culture medium: prevented the death
Retinal ganglion cells; DTT 500 μM in the presence of DTNB 1 mM, APV cultures P<0.01
  neuronal survival compared to baseline: significantly greater than baseline
NMDA receptor
  NMDA-induced responses in native and reduced states: blocked NMDA-induced responses

## O[C@H]1CSSC[C@@H]1O [oxidized DTT, oxidized dithiotheritol]
Retinal ganglion cells
  NMDA receptor-mediated neurotoxicity / neuronal cell injury: does not effect neuronal cell injury
Retinal ganglion cells; listed as oxidized dithiotheritol (DTT)
  NMDA receptor-mediated neurotoxicity / neuronal cell injury: does not significantly affect
